Measured values reported in the NIST ThermoML archive (doi:10.1016/j.tca.2018.05.016).
Numbers after ± are expanded uncertainties.

Assays:
[1] = Crystal; DSC
[2] = Molar enthalpy of transition or fusion; conditions: Crystal; DSC

## O=[N+]([O-])[O-].c1cc[nH+]cc1 [pyridinium nitrate]
[1]
  Triple point temperature: 390 ± 5 K
[2]
  Molar enthalpy of transition or fusion: 4.13 ± 0.148 kcal/mol
